Measured values published in ChEMBL document CHEMBL5104129, “Discovery of a novel 2-spiroproline steroid mimetic scaffold for the potent inhibition of 11β-HSD1” (Bioorg Med Chem Lett, 2022).

Columns and labels:
[1] = target: T1, 11-beta-hydroxysteroid dehydrogenase 1 (Homo sapiens, UniProt P28845); assay: Inhibition of 11beta-HSD1 (unknown origin) using 3H-cortisone as substrate by scintillation proximity assay
[2] = target: T1, 11-beta-hydroxysteroid dehydrogenase 1; assay: Inhibition of 11beta-HSD1 in human PBMC cells using 3H-cortisone as substrate assessed as conversion of cortisone to cortisol by ELISA; type: cell-based
PXR (NR1I2) [3] = target: T2, PXR (NR1I2) (Rattus norvegicus, UniProt Q9R1A7); assay: Activation of rat PXR assessed as induction of PXR activity at 10 uM relative to control; conditions: read-out: Activity
T2 sequence (Q9R1A7 whole entry): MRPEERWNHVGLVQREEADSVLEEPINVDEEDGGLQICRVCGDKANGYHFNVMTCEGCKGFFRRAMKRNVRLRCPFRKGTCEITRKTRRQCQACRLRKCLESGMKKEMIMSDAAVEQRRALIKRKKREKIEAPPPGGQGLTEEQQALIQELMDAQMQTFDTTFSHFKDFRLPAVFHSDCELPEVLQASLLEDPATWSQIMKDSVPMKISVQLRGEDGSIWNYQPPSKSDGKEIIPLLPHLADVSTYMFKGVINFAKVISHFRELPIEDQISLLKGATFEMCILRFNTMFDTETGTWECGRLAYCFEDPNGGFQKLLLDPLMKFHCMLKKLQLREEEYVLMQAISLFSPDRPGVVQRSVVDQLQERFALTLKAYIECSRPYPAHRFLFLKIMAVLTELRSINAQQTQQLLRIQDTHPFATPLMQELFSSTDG

PXR (NR1I2) [4] = target: T3, PXR (NR1I2) (Homo sapiens, UniProt O75469); assay: Activation of human PXR assessed as induction of PXR activity at 10 uM relative to control; conditions: read-out: Activity
T3 sequence (O75469 whole entry): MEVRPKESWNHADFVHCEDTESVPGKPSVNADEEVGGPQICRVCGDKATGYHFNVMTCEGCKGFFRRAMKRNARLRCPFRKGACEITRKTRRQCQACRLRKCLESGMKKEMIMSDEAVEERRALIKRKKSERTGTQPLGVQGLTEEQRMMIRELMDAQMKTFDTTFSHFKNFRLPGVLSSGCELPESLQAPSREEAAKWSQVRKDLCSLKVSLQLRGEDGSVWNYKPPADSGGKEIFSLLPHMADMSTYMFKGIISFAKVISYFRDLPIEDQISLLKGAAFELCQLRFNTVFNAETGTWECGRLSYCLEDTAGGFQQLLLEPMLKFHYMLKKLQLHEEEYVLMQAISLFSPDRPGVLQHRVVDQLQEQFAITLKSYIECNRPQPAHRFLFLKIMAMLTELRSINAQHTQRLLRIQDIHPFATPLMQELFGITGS

hERG (KCNH2) = hERG (KCNH2) (Homo sapiens, UniProt Q12809); assay: Inhibition of human ERG expressed in CHO cells at 30 uM at -80 mV holding potential by automated patch clamp assay relative to control; type: toxicity, cell-based; conditions: CHO cells expressing human ERG
[5] = target: T1, 11-beta-hydroxysteroid dehydrogenase 1; assay: Inhibition of 11beta-HSD1 (unknown origin)

Chain of hERG (KCNH2) (Q12809 whole entry): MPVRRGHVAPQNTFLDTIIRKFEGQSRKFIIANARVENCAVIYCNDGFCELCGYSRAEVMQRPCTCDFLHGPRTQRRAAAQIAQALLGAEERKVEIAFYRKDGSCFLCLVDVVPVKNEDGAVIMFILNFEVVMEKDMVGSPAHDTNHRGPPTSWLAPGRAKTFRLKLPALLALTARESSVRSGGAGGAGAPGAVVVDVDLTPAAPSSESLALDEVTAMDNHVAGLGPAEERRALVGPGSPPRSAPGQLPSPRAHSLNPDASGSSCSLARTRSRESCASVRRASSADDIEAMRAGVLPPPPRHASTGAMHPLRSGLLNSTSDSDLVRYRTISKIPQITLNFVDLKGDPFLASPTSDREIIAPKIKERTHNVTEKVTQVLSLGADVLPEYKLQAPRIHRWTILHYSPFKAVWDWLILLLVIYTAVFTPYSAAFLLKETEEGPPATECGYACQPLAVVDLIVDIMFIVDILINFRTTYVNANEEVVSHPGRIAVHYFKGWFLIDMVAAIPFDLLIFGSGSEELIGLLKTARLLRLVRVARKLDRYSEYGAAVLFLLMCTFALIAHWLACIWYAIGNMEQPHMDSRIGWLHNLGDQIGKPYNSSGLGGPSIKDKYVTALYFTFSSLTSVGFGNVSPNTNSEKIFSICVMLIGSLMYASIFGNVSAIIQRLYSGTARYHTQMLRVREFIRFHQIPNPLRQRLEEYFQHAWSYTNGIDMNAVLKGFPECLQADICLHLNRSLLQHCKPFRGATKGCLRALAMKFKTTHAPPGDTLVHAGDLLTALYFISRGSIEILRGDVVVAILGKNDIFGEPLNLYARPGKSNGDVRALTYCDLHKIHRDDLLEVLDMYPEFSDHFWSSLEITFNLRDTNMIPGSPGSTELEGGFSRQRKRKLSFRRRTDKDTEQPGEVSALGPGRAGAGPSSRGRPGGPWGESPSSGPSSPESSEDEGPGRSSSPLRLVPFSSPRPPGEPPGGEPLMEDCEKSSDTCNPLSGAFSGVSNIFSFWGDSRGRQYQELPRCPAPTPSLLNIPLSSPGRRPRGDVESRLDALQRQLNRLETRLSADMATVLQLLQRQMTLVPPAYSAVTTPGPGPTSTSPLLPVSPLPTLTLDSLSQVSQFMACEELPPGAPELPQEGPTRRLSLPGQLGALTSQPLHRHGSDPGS
T1 sequence (P28845 whole entry): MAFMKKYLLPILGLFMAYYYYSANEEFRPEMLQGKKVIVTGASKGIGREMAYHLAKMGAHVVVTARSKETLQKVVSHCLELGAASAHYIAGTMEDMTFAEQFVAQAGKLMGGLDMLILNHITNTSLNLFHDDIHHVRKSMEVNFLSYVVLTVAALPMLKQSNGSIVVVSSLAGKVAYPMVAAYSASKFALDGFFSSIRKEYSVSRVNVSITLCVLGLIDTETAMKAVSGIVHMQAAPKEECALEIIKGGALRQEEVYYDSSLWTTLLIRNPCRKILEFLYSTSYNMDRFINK

Structure (SMILES) | IC50 [1] | IC50 [2] | activity at 10 µM (PXR (NR1I2) [3]) | activity at 10 µM (PXR (NR1I2) [4]) | inhibition at 30 µM (hERG (KCNH2)) | IC50 [5]
O=C1N(C2CCCCC2)CCC12CCCN2CC1CCOC1 (stereo not drawn) | 460 nM | – | – | – | – | –
O=C1N(C2CCCCC2)CC[C@]12C[C@@H](O)CN2Cc1ccc(-c2ccc(F)cc2)nc1 | 80 nM | > 37 nM | – | – | – | –
O=C1N(C2CCCCC2)CCC12CCCN2C1CCC1 (stereo not drawn) | > 1000 nM | – | – | – | – | –
O=C1N(C2CCCCC2)CC[C@]12C[C@@H](O)CN2Cc1ccc(Cl)cc1 | 6 nM | 6.2 nM | 16% | 42% | 14% | –
CC(C)CN1CCCC12CCN(C13CC4CC(CC(C4)C1)C3)C2=O (stereo not drawn) | 400 nM | – | – | – | – | –
CC(C1CC1)N1C[C@H](O)C[C@]12CCN(C1CCCCC1)C2=O (stereo partly drawn) | 400 nM | > 37 nM | 2% | 1% | -10% | –
O=C1N([C@H]2CC[C@H](O)CC2)CCC12CCCN2Cc1ccc(Cl)cc1 (stereo partly drawn) | 30 nM | – | 2% | 0.5% | 13% | –
O=C1N(c2ccccc2Cl)CCC12CCCN2CC1CC1 (stereo not drawn) | 500 nM | – | – | – | – | –
CCNC(=O)c1ccc(-c2cccc(CN3C[C@H](O)C[C@]34CCN(C3CCCCC3)C4=O)c2)cn1 | 227 nM | > 37 nM | – | – | – | –
N#Cc1ccc(-c2ccc(CN3C[C@H](O)C[C@]34CCN(C3CCCCC3)C4=O)cn2)cc1 | 18 nM | 35 nM | – | – | – | –
CC1(O)CN(Cc2ccc(Cl)cc2)[C@@]2(CCN(C3CCCCC3)C2=O)C1 (stereo partly drawn) | 999 nM | > 37 nM | 41% | 9.5% | 13% | –
O=C(c1ccccn1)N1CCCC12CCN(C1CCCCC1)C2=O (stereo not drawn) | > 1000 nM | – | – | – | – | –
O=C1N(C2CCCCC2)CCC12C[C@@H](O)CN2Cc1ccc(Cl)cc1 (stereo partly drawn) | 7 nM | – | 10% | 18% | 27% | –
O=C1N(C2CCCCC2)CCC12CCCN2Cc1ccccn1 (stereo not drawn) | 63 nM | – | – | – | – | –
O=C1N(C2CCCCC2)CC[C@]12C[C@@H](O)CN2CC1CCCC1 | 30 nM | – | – | – | – | –
O=C1N(C2CCCCC2)CC[C@]12C[C@@H](O)CN2CC1CCCCC1 | 15 nM | 7 nM | 14% | 9% | 8.1% | –
O=C1N(C23CC4CC(CC(C4)C2)C3)CCC12CCCN2Cc1ccccn1 (stereo not drawn) | 134 nM | – | – | – | – | –
O=C1N(C2CCCCC2)CC[C@]12C[C@H](F)CN2Cc1ccc(Cl)cc1 | 2 nM | 5.1 nM | 123% | 48% | 52% | –
CNC(=O)c1ccc(-c2ccc(CN3C[C@H](O)C[C@]34CCN(C3CCCCC3)C4=O)cc2F)cn1 | 13 nM | 9.5 nM | – | – | – | –
CC(C1CCC1)N1C[C@H](O)C[C@]12CCN(C1CCCCC1)C2=O (stereo partly drawn) | 7 nM | 3.9 nM | 9% | 4.5% | -15% | –
O=C1N(C2CCCCC2)CC[C@@]12C[C@H](O)CN2Cc1ccc(Cl)cc1 | > 1000 nM | > 37 nM | 12% | 52% | -4.3% | –
CCNC(=O)c1ccc(-c2cc(CN3C[C@H](O)C[C@]34CCN(C3CCCCC3)C4=O)ccc2F)cn1 | 62 nM | > 37 nM | – | – | – | –
CNC(=O)c1ccc(-c2ccc(CN3C[C@@H](F)C[C@]34CCN(C3CCCCC3)C4=O)cc2)cn1 | 2 nM | 5.9 nM | 24% | 14% | 49% | –
N#Cc1ccc(CN2CCCC23CCN(C2CCCCC2)C3=O)cc1 (stereo not drawn) | 29 nM | – | – | – | – | –
CNC(=O)c1ccc(-c2ccc(CN3C[C@H](O)C[C@]34CCN(C3CCCCC3)C4=O)cc2)cn1 | 3 nM | 7.2 nM | -0.3% | -0.3% | -14% | –
O=C(NC12CC3CC(CC(C3)C1)C2)[C@H]1CCCN1Cc1ccccn1 | – | – | – | – | – | 12 nM

Structure (SMILES) | IC50 [1] | IC50 [2] | activity at 10 µM (PXR (NR1I2) [3]) | activity at 10 µM (PXR (NR1I2) [4]) | inhibition at 30 µM (hERG (KCNH2)) | IC50 [5]
CN(C)C(=O)c1ccc(-c2ccc(CN3C[C@H](O)C[C@]34CCN(C3CCCCC3)C4=O)cc2)cn1 | 35 nM | – | – | – | – | –
O=C1N(C2CCCCC2)CCC12CCCN2CC1CC1 (stereo not drawn) | 134 nM | – | – | – | – | –
O=C1N(C2CCCCC2)CC[C@]12C[C@@H](O)CN2C1CCCC1 | 351 nM | – | – | – | – | –
O=C1N(C2CCCCC2)CCC12CCCN2Cc1ccc(C(F)(F)F)cc1 (stereo not drawn) | 7 nM | – | 12% | 80% | 27% | –
CC(C)NC(=O)c1ccc(-c2ccc(CN3C[C@H](O)C[C@]34CCN(C3CCCCC3)C4=O)cc2F)cn1 | 5 nM | 4.9 nM | – | – | – | –
N#Cc1cncc(-c2ccc(CN3C[C@H](O)C[C@]34CCN(C3CCCCC3)C4=O)cc2)c1 | 188 nM | – | – | – | – | –
O=C1N(C2CCCCC2)CCC12CCCN2Cc1ccc(Cl)cc1 (stereo not drawn) | 8 nM | – | 22% | 46% | 45% | –
O=C1N(C2CCCC2)CCC12CCCN2Cc1ccc(Cl)cc1 (stereo not drawn) | 26 nM | – | – | – | – | –
O=C1N(C2CCCCC2)CCC12CCCN2Cc1cccc(C(F)(F)F)c1 (stereo not drawn) | 40 nM | – | – | – | – | –
N#Cc1ccc(-c2ccc(CN3C[C@H](O)C[C@]34CCN(C3CCCCC3)C4=O)nc2)cc1 | 230 nM | – | – | – | – | –
N#Cc1ccnc(-c2ccc(CN3C[C@H](O)C[C@]34CCN(C3CCCCC3)C4=O)cc2)c1 | 35 nM | – | – | – | – | –
O=C1N(C2CCCCCC2)CCC12CCCN2Cc1ccc(Cl)cc1 (stereo not drawn) | 7 nM | – | – | – | – | –
O=C1N(C23CC4CC(CC(C4)C2)C3)CCC12CCCN2CC1CCCC1 (stereo not drawn) | 51 nM | – | – | – | – | –
O=C1N(C2CCOCC2)CCC12CCCN2Cc1ccc(Cl)cc1 (stereo not drawn) | 45 nM | – | – | – | – | –
O=C1N(C2CCCCC2)CCC12CCCN2Cc1ccccc1C(F)(F)F (stereo not drawn) | 15 nM | – | – | – | – | –
CCN1C[C@@H](O)C[C@]12CCN(C1CCCCC1)C2=O | 15 nM | 21 nM | 28% | 56% | 11% | –
O=C1N(C2CCCCC2)CCC12CCCN2CC1CCCC1 (stereo not drawn) | 36 nM | – | – | – | – | –
CC(C)N1C[C@H](O)C[C@]12CCN(C1CCCCC1)C2=O | > 1000 nM | > 37 nM | -0.5% | -0.5% | 0% | –
CCNC(=O)c1ccc(-c2ccc(CN3CCCC34CCN(C3CCCCC3)C4=O)cc2)cn1 (stereo not drawn) | 23 nM | – | 31% | 13% | 15% | –
O=C1N(C23CC4CC(CC(C4)C2)C3)CCC12CCCN2c1ccc(C(F)(F)F)cn1 (stereo not drawn) | > 1000 nM | – | – | – | – | –
N#Cc1cccc(-c2ccc(CN3C[C@H](O)C[C@]34CCN(C3CCCCC3)C4=O)cn2)c1 | 92 nM | > 37 nM | – | – | – | –
CC(C)CN1CCC[C@@H]1C(=O)NC1CCCCC1 | – | – | – | – | – | 9 nM
CC(C1CCCCC1)N1C[C@H](O)C[C@]12CCN(C1CCCCC1)C2=O (stereo partly drawn) | 5 nM | 1.9 nM | 58% | 10% | 14% | –
CNC(=O)c1ccc(-c2ccc(CN3C[C@H](O)C[C@]34CCN(C3CCCCC3)C4=O)c(F)c2)cn1 | 9 nM | 17 nM | – | – | – | –
O=C1N(C2CCCCC2)CC[C@]12C[C@@H](O)CN2Cc1ccc(-c2ccncc2)cc1 | 7 nM | 6.6 nM | – | – | – | –
